From patent US8287862B2, “Multidrug resistance-associated polypeptide” (Millennium Pharmaceuticals, Inc., priority 1997, dated 2012)

Experiments:
[1] = tested on: MCF-7 human breast adenocarcinoma cell line; details: adriamycin-selected MDR MCF-7 vs parental MCF-7; cited from earlier work
[2] = tested on: MRP-β host cells; details: versus source or control cells; 16-24 hours in culture
Experimental: To establish this survival advantage, triplicate cultures of MRP-β host cells, control cells and source cells (e.g., MCF-7 human breast adenocarcinoma cells) are generated in 24-well cell culture plates. Once the cultures have attained at least 80% confluency, lethal or sub-lethal amounts of a cytotoxin (e.g., adriamycin, bisantrene) are added to each well. After a sufficient period of time for cytotoxic effects to be manifested (e.g., 16-24 hours in culture), culture media comprising the cytotoxic drug are aspirated or otherwise removed, and cells are stained with a vital dye such as Trypan blue. Which commercially available vital dye is used in this procedure is a matter of choice; thus, sulforodoamine B (see Powell et al. (1990), U.S. Pat. No. 5,550,149) could be used in lieu of Trypan blue. The number of cells that remain viable (e.g., capable of excluding the dye) are counted using a hemocytometer, flow cytometer or other appropriate device.

| Compound | resistance of MDR derivative cell line relative to parental (wild-type) MCF-7 [1] | survival of MRP-β expressing host cells on exposure to cytotoxin [2] |
| --- | --- | --- |
| COc1cccc2c1C(=O)c1c(O)c3c(c(O)c1C2=O)C[C@@](O)(C(=O)CO)C[C@@H]3O[C@H]1C[C@H](N)[C@H](O)[C@H](C)O1 [adriamycin] | 192 fold | – |
| C(=N\NC1=NCCN1)/c1c2ccccc2c(/C=N/NC2=NCCN2)c2ccccc12 [bisantrene] | – | surviving exposure to otherwise lethal amounts |
